Measured values: patent publication US8017612B2, “Piperazine compound and use thereof as a HCV polymerase inhibitor” (priority 2006, dated 2011)
pIC50: −log10 of the molar value. Counter-ions that a name gives are not always drawn.

Key:
[1] = target: T1, HCV polymerase (NS5B) type 1b (Hepatitis C virus genotype 1b, UniProt P26663); assay: Assay of enzyme (HCV polymerase) inhibitory activity, type 1b enzyme; assay type: biochemical, HCV BK strain (type 1b)
T1 construct: a region encoding NS5B (J Virol 1991 March, 65(3), 1105-13, 544 amino acids after deletion of 47 amino acids on the C-terminal); 6xHis (C); made in house; host or cells: Escherichia coli
Outline: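 Rxn: NS5B 1b (BK, ΔC47, His6) 0.5 μg/ml; substrate RNA 5 μg/ml; ATP/GTP/CTP 50 μM, UTP 2 μM + [5,6-3H]UTP; 20 mM Tris pH 7.5, 5 mM MgCl2, 50 mM NaCl, 1 mM EDTA/DTT. 25 °C, 60 min. Stop with TCA/pyrophosphate, filter, scintillation count; IC50 vs. untreated.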

[2] = target: T2, HCV polymerase (NS5B) type 1a (Hepatitis C virus genotype 1a, UniProt P26664); assay: Assay of enzyme (HCV polymerase) inhibitory activity, type 1a enzyme; assay type: biochemical, HCV type 1a (cloned from the blood of patients)
T2 construct: made in house; host or cells: Escherichia coli (by the 'similar method' of the 1b enzyme)
Outline: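 NS5B Δ47 C-term His6 (type 1a, 1.5 μg/ml); substrate RNA 5 μg/ml; ATP/GTP/CTP 50 μM, UTP 2 μM + [5,6-3H]UTP; Tris pH 7.5, MgCl2 5 mM; 25° C, 60 min. TCA/pyrophosphate stop, GF/B filter, scintillation. IC50 vs no-compound control.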

[3] = HCV polymerase inhibitory activity (IC50), 1b, type 1b enzyme 0.5 μg/ml, 25° C., 60 min
[4] = HCV polymerase inhibitory activity (IC50), 1a, type 1a enzyme 1.5 μg/ml, 25° C., 60 min
[5] = HCV polymerase inhibitory activity IC50, 1b, type 1b enzyme
[6] = HCV polymerase inhibitory activity IC50, 1a, type 1a enzyme

SMILES | pIC50 [1, 3] | pIC50 [2, 4] | pIC50 [1, 5] | pIC50 [2, 6]
CC(=O)N1CCN(S(=O)(=O)c2ccc(OC(F)(F)F)cc2)[C@@H](C(=O)NCc2ccc(-c3ccccc3)s2)C1 [Example 614, (R)-4-acetyl-1-(4-trifluoromethoxy-benzenesulfonyl)-piperazine-2-carboxylic acid (5-phenyl-thiophen-2-ylmethyl)-amide] | 6.00 to 7.00 | 6.00 to 7.00 |  | 
Cc1nc(N2CCN(S(=O)(=O)c3ccc(OC(F)(F)F)cc3)[C@@H](C(=O)NCc3ccc(C4CC4)cc3)C2)sc1C(=O)O [Example 383, 2-[(R)-3-(4-cyclopropyl-benzylcarbamoyl)-4-(4-trifluoromethoxy-benzenesulfonyl)-piperazin-1-yl]-4-methyl-thiazole-5-carboxylic acid] | > 7.00 | > 7.00 |  | 
CC(=O)N1CCN(S(=O)(=O)c2ccc(OC(F)(F)F)cc2)[C@@H](C(=O)NCCc2ccccc2O)C1 [Example 682, (R)-4-acetyl-1-(4-trifluoromethoxy-benzenesulfonyl)-piperazine-2-carboxylic acid [2-(2-hydroxy-phenyl)-ethyl]-amide] |  |  | < 6.00 | < 6.00
Cc1nn(C)c2nc(N3CCN(S(=O)(=O)c4ccc(OC(F)(F)F)cc4)[C@@H](C(=O)NCc4ccc(OC(F)(F)F)cc4)C3)sc12 [Example 980, (R)-4-(1,3-dimethyl-1H-pyrazolo[3,4-d]thiazol-5-yl)-1-(4-trifluoromethoxy-benzenesulfonyl)-piperazine-2-carboxylic acid 4-trifluoromethoxy-benzylamide] |  |  | > 7.00 | > 7.00
O=C(NCc1ccc(OC(F)(F)F)cc1)[C@H]1CN(c2nc3cn[nH]c(=O)c3s2)CCN1S(=O)(=O)c1ccc(Cl)s1 [Example 850, (R)-1-(5-chloro-thiophene-2-sulfonyl)-4-(7-oxo-6,7-dihydro-thiazolo[4,5-d]pyridazin-2-yl)-piperazine-2-carboxylic acid 4-trifluoromethoxy-benzylamide] |  |  | > 7.00 | > 7.00
O=C(NCc1ccc(OC(F)(F)F)cc1)[C@H]1CN(c2nc3nc(C(F)(F)F)[nH]c(=O)c3s2)CCN1S(=O)(=O)c1ccc(OC(F)(F)F)cc1 [Example 1003, (R)-4-(7-oxo-5-trifluoromethyl-6,7-dihydro-thiazolo[4,5-d]pyrimidin-2-yl)-1-(4-trifluoromethoxy-benzenesulfonyl)-piperazine-2-carboxylic acid 4-trifluoromethoxy-benzylamide] |  |  | > 7.00 | > 7.00
CCC(F)(F)c1ccc(CNC(=O)[C@H]2CN(c3cnc4ccc(C(=O)O)cc4n3)CCN2S(=O)(=O)c2ccc(OC(F)(F)F)cc2)cc1 [Example 711, 3-[(R)-3-[4-(1,1-difluoro-propyl)-benzylcarbamoyl]-4-(4-trifluoromethoxy-benzenesulfonyl)-piperazin-1-yl]-quinoxaline-6-carboxylic acid] |  |  | > 7.00 | 6.00 to 7.00
Cc1nc(N2CCN(S(=O)(=O)c3ccc(OC(F)(F)F)cc3)[C@@H](C(=O)NCc3ccc(N(C)C)cc3)C2)sc1C(=O)O [Example 379, 2-[(R)-3-(4-dimethylamino-benzylcarbamoyl)-4-(4-trifluoromethoxy-benzenesulfonyl)-piperazin-1-yl]-4-methyl-thiazole-5-carboxylic acid hydrochloride] | > 7.00 | > 7.00 |  | 
CCC(F)(F)c1ccc(CNC(=O)[C@H]2CN(c3nc(OC)ns3)CCN2S(=O)(=O)c2ccc(OC(F)(F)F)cc2)cc1 [Example 625, (R)-4-(3-methoxy-[1,2,4]thiadiazol-5-yl)-1-(4-trifluoromethoxy-benzenesulfonyl)-piperazine-2-carboxylic acid 4-(1,1-difluoro-propyl)-benzylamide] | > 7.00 | > 7.00 |  | 
CC(=O)N1CCN(S(=O)(=O)c2ccc(Br)cc2)[C@@H](C(=O)NCc2ccc(C(C)C)cc2)C1 [Example 430, (R)-4-acetyl-1-(4-bromo-benzenesulfonyl)-piperazine-2-carboxylic acid 4-isopropyl-benzylamide] | 6.00 to 7.00 | 6.00 to 7.00 |  | 
CC(C)c1ccc(CNC(=O)[C@H]2CN(c3ncc(C(=O)O)cn3)CCN2S(=O)(=O)c2ccc(C(F)(F)F)cc2)cc1 [Example 342, 2-[(R)-3-(4-isopropyl-benzylcarbamoyl)-4-(4-trifluoromethyl-benzenesulfonyl)-piperazin-1-yl]-pyrimidine-5-carboxylic acid] | 6.00 to 7.00 | < 6.00 |  | 
CCC(F)(F)c1ccc(CNC(=O)[C@H]2CN(C3=NC(=O)CS3)CCN2S(=O)(=O)c2ccc(OC(F)(F)F)cc2)cc1 [Example 704, (R)-4-(4-oxo-4,5-dihydro-thiazol-2-yl)-1-(4-trifluoromethoxy-benzenesulfonyl)-piperazine-2-carboxylic acid 4-(1,1-difluoro-propyl)-benzylamide] |  |  | > 7.00 | > 7.00
CCCc1ccc(CNC(=O)[C@H]2CN(c3cnc(C(=O)O)cn3)CCN2S(=O)(=O)c2ccc(-c3ccccc3)cc2)cc1 [Example 701, (R)-4-(biphenyl-4-sulfonyl)-3-(4-propyl-benzylcarbamoyl)-3,4,5,6-tetrahydro-2H-[1,2′]bipyrazinyl-5′-carboxylic acid] |  |  | > 7.00 | > 7.00
COC(=O)c1cnc(N2CCN(S(=O)(=O)c3ccc(C(F)(F)F)cc3)[C@@H](C(=O)NCc3ccc(C(C)C)cc3)C2)s1 [Example 302, 2-[(R)-3-(4-isopropyl-benzylcarbamoyl)-4-(4-trifluoromethyl-benzenesulfonyl)-piperazin-1-yl]-thiazole-5-carboxylic acid methyl ester] | > 7.00 | 6.00 to 7.00 |  | 
CCC(F)(F)c1ccc(CNC(=O)[C@H]2CN(c3cnc4cncnc4n3)CCN2S(=O)(=O)c2ccc(C(C)(C)C)cc2)cc1 [Example 695, (R)-1-(4-tert-butyl-benzenesulfonyl)-4-pteridin-7-yl-piperazine-2-carboxylic acid 4-(1,1-difluoro-propyl)-benzylamide] |  |  | > 7.00 | > 7.00
CC(C)c1ccc(S(=O)(=O)N2CCN(c3nc(-c4ccccc4)cs3)CC2C(=O)NCc2ccc(C(F)(F)F)cc2)cc1 (stereo not shown) [Example 135, 1-(4-isopropyl-benzenesulfonyl)-4-(4-phenyl-thiazol-2-yl)-piperazine-2-carboxylic acid 4-trifluoromethyl-benzylamide] | < 6.00 | < 6.00 |  | 
O=C(NCc1ccc(OC(F)F)c(F)c1)[C@H]1CN(c2nc3nc(C(F)(F)F)ncc3s2)CCN1S(=O)(=O)c1ccc(OC(F)(F)F)cc1 [Example 1061, (R)-1-(4-trifluoromethoxy-benzenesulfonyl)-4-(5-trifluoromethyl-thiazolo[4,5-d]pyrimidin-2-yl)-piperazine-2-carboxylic acid 4-difluoromethoxy-3-fluoro-benzylamide] |  |  | > 7.00 | > 7.00
Cc1cc(=O)nc2sc(N3CCN(S(=O)(=O)c4ccc(C(F)(F)F)cc4)[C@@H](C(=O)NCc4ccc(OC(F)(F)F)cc4)C3)nn12 [Example 1028, (R)-4-(5-methyl-7-oxo-7H-[1,3,4]thiadiazolo[3,2-a]pyrimidin-2-yl)-1-(4-trifluoromethyl-benzenesulfonyl)-piperazine-2-carboxylic acid 4-trifluoromethoxy-benzylamide] |  |  | > 7.00 | > 7.00
CCCc1ccc(CNC(=O)[C@H]2CN(c3cnc(C(=O)O)cn3)CCN2S(=O)(=O)c2ccc(C(C)(C)C)cc2)cc1 [Example 700, (R)-4-(4-tert-butyl-benzenesulfonyl)-3-(4-propyl-benzylcarbamoyl)-3,4,5,6-tetrahydro-2H-[1,2′]bipyrazinyl-5′-carboxylic acid] |  |  | > 7.00 | > 7.00
CC(=O)N1CCN(S(=O)(=O)c2ccc(-n3cc(Cl)cn3)s2)C(C(=O)NCc2ccc(C(F)(F)F)cc2)C1 (stereo not shown) [Example 62, 4-acetyl-1-[5-(4-chloro-pyrazol-1-yl)-thiophene-2-sulfonyl]-piperazine-2-carboxylic acid 4-trifluoromethyl-benzylamide] | < 6.00 | < 6.00 |  | 
CCOC(=O)Cc1nnn(CC(=O)N2CCN(S(=O)(=O)c3ccc(OC(F)(F)F)cc3)[C@@H](C(=O)NCc3ccc(C(F)(F)CC)cc3)C2)n1 [Example 466, (2-{2-[(R)-3-[4-(1,1-difluoro-propyl)-benzylcarbamoyl]-4-(4-trifluoromethoxy-benzenesulfonyl)-piperazin-1-yl]-2-oxo-ethyl}-2H-tetrazol-5-yl)-acetic acid ethyl ester] | > 7.00 | > 7.00 |  | 
CC(=O)N1CCN(S(=O)(=O)c2ccc(OC(F)(F)F)cc2)[C@@H](C(=O)NCc2ccc(CCCO)cc2)C1 [Example 702, (R)-4-acetyl-1-(4-trifluoromethoxy-benzenesulfonyl)-piperazine-2-carboxylic acid 4-(3-hydroxy-propyl)-benzylamide] |  |  | < 6.00 | < 6.00
CCC(F)(F)c1ccc(CNC(=O)[C@H]2CN(c3cnc4cc(Cl)ccc4n3)CCN2S(=O)(=O)c2ccc(OC(F)(F)F)cc2)cc1 [Example 688, (R)-4-(6-chloro-quinoxalin-2-yl)-1-(4-trifluoromethoxy-benzenesulfonyl)-piperazine-2-carboxylic acid 4-(1,1-difluoro-propyl)-benzylamide] |  |  | 6.00 to 7.00 | 6.00 to 7.00
